The values that follow are results of earlier work, collected in patent US20210319872A1, “DRUG AND DEVICE COMBINATION PRODUCTS WITH IMPROVED SAFETY AND EFFICACY PROFILES” (priority 2016, published 2021).

Read-outs that look alike come from different tables or passages of the source.

Take `NCC1(CC(=O)O)CCCCC1` [Gabapentin (Neurontin)]: for the setting “in vivo”, the Ataxia result was “Neurologic: Ataxia (Adult, 3%; adult and adolescent, 13%),”; the “Disorder of form of thought” value is on record as “Psychiatric: Disorder of form of thought (Pediatric, 1.7%),”; the Disturbance in thinking result was “Disturbance in thinking (2% to 3%), Hostile behavior (Pediatric,”; the Fatigue entry is given as “Other: Fatigue (3% to 11%), Fever (Pediatric, 10%)”. In addition, under “in vivo”, the Fever result is “Other: Fatigue (3% to 11%), Fever (Pediatric, 10%)”; the Hostile behavior is on record as 5.2%), Hyperactive behavior (Pediatric, 4.7%), Mood swings; the Hyperactive behavior is 5.2%), Hyperactive behavior (Pediatric, 4.7%), Mood swings; the Mood swings result is on record as “(Pediatric, 6%), Suicidal thoughts”. Under “in vivo”, the Nausea entry was “Gastrointestinal: Nausea (greater than 1%), Vomiting (3.3%)”; the Nystagmus result is “Nystagmus (Adult and adolescent, 8%)”; the Peripheral edema result is given as “Cardiovascular: Peripheral edema (1.7% to 8.3%)”; the “Serious side effect, Dermatologic” value is “Dermatologic: Stevens-Johnson syndrome”. Moreover, where the note is “in vivo”, the “Serious side effect, Immunologic” value was “Immunologic: Drug hypersensitivity syndrome”; the “Serious side effect, Psychiatric” value is on record as “(Pediatric, 6%), Suicidal thoughts”; the Viral disease entry is listed as “Immunologic: Viral disease (10.9%)”; the Vomiting result is reported as “Gastrointestinal: Nausea (greater than 1%), Vomiting (3.3%)”.
Consider `Nc1nnc(-c2cccc(Cl)c2Cl)c(N)n1` [Lamotrigine (Lamictal)], for which, for the setting “in vivo”, the Abdominal pain entry was “Gastrointestinal: Abdominal pain (immediate-release, 5% to 10%),”; the Anemia entry is “Hematologic: Anemia (immediate release, less than 0.1%),”; the Angioedema result is “Other: Angioedema (less than 0.1%), Neuroleptic malignant”; the Ataxia result is reported as “release, 6%), Ataxia (immediate-release, 2% to 11%), Coordination”. For the same compound, where the note is “in vivo”, the Coordination problem result is given as “problem (immediate-release, 6% to 7%; extended-release, 3%),”; the Depression is 3%), Depression (immediate-release, 4%; extended-release, 3%); the Diarrhea result is “Diarrhea (immediate-release, 6% to 11%; extended-release, 5%),”; the Dizziness result is “Dizziness (immediate-release, 7% to 54%; extended release, 14%),”. Under “in vivo”, the Dysmenorrhea result was “Reproductive: Dysmenorrhea (immediate-release, 5% to 7%)”; the Headache result is “Headache (immediate-release, 29%), Insomnia (immediate-release,”; the Indigestion result is “Indigestion (immediate-release, 2% to 7%), Nausea (immediate-”; the Insomnia is on record as 5% to 10%), Somnolence (immediate-release, 9% to 17%;. Further, where the note is “in vivo”, the Nausea result is “release, 7% to 25%; extended-release, 7%), Vomiting (immediate-”; the Pain entry is “Other: Pain (immediate-release, 5%)”; the Rash entry is listed as “Dermatologic: Rash (7% to 14%)”; the “Rash, Serious” value is listed as “Serious (0.08% to 0.8%), Stevens-Johnson syndrome (0.08% to”. Moreover, where the note is “in vivo”, the Rhinitis entry was “Respiratory: Rhinitis (immediate-release, 7% to 14%)” and the Vomiting result was “release, 5% to 20%; extended-release, 6%))”.
With `CCOC(=O)[C@H](CCc1ccccc1)N[C@@H](C)C(=O)N1Cc2cc(OC)c(OC)cc2C[C@H]1C(=O)O` [Moexipril (Univasc)], under “in vivo”, the “Common side effects, listed without incidence” value is on record as “Other: Influenza-like symptoms”; the Cough result is recorded as “Respiratory: Cough (6.1%)”; the Diarrhea result was “Gastrointestinal: Diarrhea (3.1%)”; the Dizziness result is “Neurologic: Dizziness (4.3%)”.
As for `CNC(=O)c1cc(Oc2ccc(NC(=O)Nc3ccc(Cl)c(C(F)(F)F)c3)cc2)ccn1` [Nexavar], under “hepatocellular carcinoma”, the Abdominal pain is 31%; the Acral erythema result is reported as “Dermatologic: Acral erythema (hepatocellular carcinoma, 21%;”; the Alopecia is 14%; the Hypoalbuminemia is reported as 59%. Besides, under “hepatocellular carcinoma”, the Hypocalcemia was 27%; the Lymphocytopenia result is reported as “hepatocellular carcinoma, 47%), Thrombocytopenia (renal cell”; the Thrombocytopenia was 46%; the Weight decreased result was “decreased (hepatocellular carcinoma, 30%; renal cell carcinoma,”. Besides, for the setting “in vivo”, the Congestive heart failure entry is on record as “Cardiovascular: Congestive heart failure (1.9%), Hypertension,”; the Hepatitis is less than 0.1%; the “Hypertension, All grades” value is “Cardiovascular: Hypertension, All grades (19.1%)”; the “Hypertension, Grade 3 or 4” value was 4.3%. Further, where the note is “in vivo”, the Infectious disease result was “Immunologic: Infectious disease (10% or greater)”, the Pain is no less than 10%, the “Prolonged QT interval” value is recorded as “(Less than 0.1%)” and the Rash is no more than 35%. For the same compound, where the note is “listed without frequency”, the “Common side effect, Dermatologic” value was “Peeling of skin”; the “Serious side effect, Dermatologic” value is “Stevens-Johnson syndrome”; the “Serious side effect, Gastrointestinal” value is given as “Gastrointestinal: Gastrointestinal hemorrhage, Gastrointestinal”; the “Serious side effect, Respiratory” value is listed as “Respiratory tract hemorrhage”. Also, where the note is “renal cell carcinoma”, the Abdominal pain result was “Gastrointestinal: Abdominal pain (renal cell carcinoma, 11%;”; the Acral erythema is given as 30%; the Alopecia is 27%; the Hemorrhage entry is reported as “Hematologic: Hemorrhage (renal cell carcinoma, 15.3%; thyroid”. Also, under “renal cell carcinoma”, the Hypocalcemia is 12%; the Lymphocytopenia entry is “Hematologic: Lymphocytopenia (renal cell carcinoma, 23%;”; the Thrombocytopenia was 12%; the Weight decreased is 10%. Where the note is “thyroid carcinoma”, the “ALT/SGPT level raised, Grade 3 or higher” value is recorded as “carcinoma, 4%), AST/SGOT level raised, Grade 3 or 4 (thyroid”; the “ALT/SGPT level raised, all grades” value is reported as 59%), AST/SGOT level raised, All grades (thyroid carcinoma,; the “AST/SGOT level raised, All grades” value is on record as 54%); the “AST/SGOT level raised, Grade 3 or 4” value is listed as 2%. Also, where the note is “thyroid carcinoma”, the Abdominal pain is 20%, the Acral erythema is 69%, the Alopecia is 67% and the Decrease in appetite is listed as 30%. Where the note is “thyroid carcinoma”, the Hemorrhage entry is on record as “carcinoma, 17.4%)”; the Hypocalcemia is reported as 36%; the “Raised TSH level” value is on record as 41%; the “Squamous cell carcinoma of skin” value is recorded as 3%. Moreover, the Weight decreased (thyroid carcinoma) is 49%.
Turning to `COc1ccc2c3c1O[C@H]1[C@@H](O)C=C[C@H]4[C@@H](C2)N(C)CC[C@@]341` [Codeine], under “in vivo”, the “Common side effect, Gastrointestinal” value is “Gastrointestinal: Constipation, Nausea, Vomiting”; the “Common side effect, Neurologic” value was “Neurologic: Dizziness, Lightheadedness, Sedated, Somnolence”; the “Common side effect, Respiratory” value is “Respiratory: Dyspnea”; the “Serious side effect, Cardiovascular” value was “Cardiovascular: Hypotension”. For the setting “in vivo”, the “Serious side effect, Gastrointestinal” value is given as “Gastrointestinal: Bowel obstruction, Pancreatitis”; the “Serious side effect, Neurologic” value is recorded as “Neurologic: CSF pressure: raised, Seizure”; the “Serious side effect, Respiratory” value is given as “Respiratory: Respiratory depression”.
